What is called melting point is the temperature of the solid-liquid transition.

Data set [1] deals with NMRI mice. As to the kind of experiment: Mouse Forced Swim Test (mFST). The data set is classed as in vivo. To be noted: compound alone, 0.3, 1, 3, 10 mg/kg s.c., 30 minutes pre-treatment. Here is the method:
The Forced Swim Test therefore is considered predictive of a potential antidepressant pharmacological effect.
Female NMRI mice (of 20-25 g) are habituated to the laboratory (a 12 hour light/dark cycle) for at least 16 hours before the experiment.
30 minutes after s.c. injection of either vehicle or drug, the mouse is placed in a glass beaker (d=16 cm; 5000 ml) with water (24° C.) up till 10 cm from the top edge. For the subsequent 6 minutes the duration of immobility defined as swim speed less than 2.5 cm/minute, and forced swim distance defined as distance swum with a speed above 5 cm/minute, is recorded. There are 8 mice in each group.
The activity of the mouse is tracked by the View Point system for the measurement of distance, immobility, and speed.
Time of immobility ±SEM (seconds) and forced swim distance ±SEM (cm) in 15 seconds time intervals are presented and plotted in SigmaPlot. Mean total immobility time and total swim distance in the time interval 60-360 seconds are calculated and presented for each group. The dose showing significant difference from the vehicle treated group is reported as the Minimal Effective Dose (MED s.c. mg/kg).

The subject of data set [2] is NMRI mice. Particulars: systemic administration; mice in a small water pool; background statement; cited from earlier work.

Compound `Clc1cncc(N2CCNCC2)c1.O=C(O)/C=C/C(=O)O` displayed a melting point of 195 to 196 °C.
Regarding `Ic1ccc(N2CCNCC2)nn1.O=C(O)/C=C/C(=O)O`, the melting point lay in the range of 187 to 190 °C.
Regarding `O=C(O)/C=C/C(=O)O.c1ccc2c(c1)ncn2-c1ccc(N2CCNCC2)nn1`, the melting point is 217 °C.
`CN1C2CCC1CN(c1ccccc1)CC2.O=C(O)/C=C/C(=O)O` (racemic) showed a melting point of 143.9 °C.
For the compound `Cl.Cl.Clc1ccc(N2CCNCC2)cn1` [Compound 1C3, 1-(6-Chloro-3-pyridyl)-piperazine Dihydrochloric Acid Salt], the forced swimming entry in the data set with NMRI mice [1] is recorded as “did not affect forced swimming”.
Take `CNCCCN1c2ccccc2CCc2ccccc21` [Desipramine]: the forced swim distance entry in the data set with NMRI mice [2] is listed as “induces an increase in the forced swim distance”.

The values above are taken from patent US7307087B2, “Treatment of affective disorders by the combined action of a nicotinic receptor agonist and a monoaminergic substance” (Neurosearch A/S, priority 2000, dated 2007).
